Results published in publication PMC6766655, “AhR–ROR-γt complex is a therapeutic target for MAP4K3/GLK^highIL-17A^high subpopulation of systemic lupus erythematosus” (The FASEB Journal, 2019).

Legend:
CIA mice = assay: Collagen-induced arthritis (CIA) in wild-type C57BL/6J mice; type: in vivo
Experimental: At 12 wk of age (d 0), male C57BL/6J mice were intradermally injected in the superficial layer of tail dermis with a total of 100 μl of an emulsion containing the chicken type II chicken collagen or Freund’s complete adjuvant emulsification (MD Biosciences, Oakdale, MN, USA) ([23]). The same injection was repeated intraperitoneally on d 21. Then, clinical signs of disease were assigned using the following clinical scores: 1, swollen digits; 2, erythema; 3, swollen paw or ankle; 4, loss of function. Mice were treated with verteporfin at a concentration of 0.4 μg/g body weight (0.556 nmol/g) by intravenous injection every 3 d starting from d 21 up to d 36.
Figure 4 Verteporfin (C1) suppresses IL-17 production and autoimmune responses in mice. A–C) Effect of C1 administration (0.4 μg/g body weight every 3 d for a period of 30 d) on serum IL-17A and autoantibodies in 20-wk-old Lck-GLK Tg mice. B) ELISA of serum IL-17A, IL-6, TNF-α, IFN-γ, and IL-17F in Lck-GLK Tg mice treated with C1 or PBS for 16 d. C) ELISA of serum autoantibodies in Lck-GLK Tg mice treated with C1 or PBS for 30 d. Means ± SEM are shown; n = 4/group. D) EAE induction in wild-type C57BL/6J mice treated with PBS or C1 (0.4 μg/g body weight every 3 d). Clinical scores are presented on a scale of 1–5. PBS group, n = 10; C1 group, n = 7. E) ELISA of IL-17A in the sera from MOG-immunized mice at day 16. F) Induction of CIA in wild-type C57BL/6J mice treated with C1 (0.4 μg/g body weight every 3 d) or PBS. Clinical scores are presented on a scale of 1–16; n = 4/group. G) ELISA of serum IL-17A in collagen-immunized mice at d 28. Data shown are representatives of 3 independent experiments. α-dsDNA, anti-dsDNA antibody; ANA, anti-nuclear antibody; N.S., not significant; RF, rheumatoid factor. Means ± SEM are shown. *P < 0.05, **P < 0.01, ***P < 0.001 (2-tailed Student’s t test).

KHS (MAP4K5) = target: T1, KHS (MAP4K5) (Homo sapiens, UniProt Q9Y4K4); assay: In vitro kinase assay, myelin basic protein as substrate (ADP-Glo); type: biochemical; conditions: recombinant kinase domain
T1 construct: Recombinant proteins of kinase domains of various MAP4Ks were used; purchased Promega
T1 sequence (Q9Y4K4 20-277 limits assumed): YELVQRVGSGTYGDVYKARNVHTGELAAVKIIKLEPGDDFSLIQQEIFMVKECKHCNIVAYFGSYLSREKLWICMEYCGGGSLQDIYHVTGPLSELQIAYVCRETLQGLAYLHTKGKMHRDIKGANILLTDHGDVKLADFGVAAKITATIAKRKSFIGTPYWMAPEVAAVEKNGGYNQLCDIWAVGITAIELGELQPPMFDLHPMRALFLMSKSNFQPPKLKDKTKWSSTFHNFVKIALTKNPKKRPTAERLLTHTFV

GLK kinase domain = target: T2, GLK kinase domain (Homo sapiens, UniProt Q8IVH8); assay: In vitro GLK kinase assay with kinase-dead PKC-θ (K409W) as substrate; type: biochemical; conditions: GST-tagged kinase-dead PKC-θ (K409W) substrate; Fig. 3B
T2 construct: Recombinant proteins of GLK kinase domain plus recombinant proteins of GST-tagged kinase-dead PKC-θ (K409W) were subjected to in vitro kinase assays; made in house; host or cells: Escherichia coli (BL21)
T2 sequence (Q8IVH8 16-273 limits assumed): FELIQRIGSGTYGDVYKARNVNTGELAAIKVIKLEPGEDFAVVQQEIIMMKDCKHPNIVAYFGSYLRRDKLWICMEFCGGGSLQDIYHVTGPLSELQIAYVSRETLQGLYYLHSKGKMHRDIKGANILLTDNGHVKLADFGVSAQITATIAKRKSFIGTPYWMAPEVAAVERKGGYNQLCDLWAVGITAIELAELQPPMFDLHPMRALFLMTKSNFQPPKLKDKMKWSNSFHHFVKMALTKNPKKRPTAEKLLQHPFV
Experimental: GLK kinase activity was determined by measuring the rate of ADP production in the in vitro kinase reaction using ADP-Glo Kinase Assay Kit (Promega). For the kinase reaction, recombinant proteins of the GLK kinase domain (1 μg) were incubated with recombinant proteins of kinase-dead PKC-θ (K409W; 0.15 μg) plus ATP (0.1 mM) or myelin basic protein (MilliporeSigma) plus ATP (0.1 mM) in kinase buffer [40 mM Tris-HCl (pH 7.5), 20 mM MgCl2, 0.1 mg/ml bovine serum albumin, 10 mM DTT, and 0.1 mM Na3VO4] for 30 min at room temperature.
Cell-based high‐throughput screening was conducted against a representative library of 100,000 molecules at ∼10 μM. The Chinese hamster ovary CHO-K1 (ATCC, CCL-61) cells expressing GLK and NF-κB luciferase (Luc) reporter were used. The reaction volume was 5 μl (500 cells) per well in 1536‐well plates. There was no positive control. This high‐throughput screening campaign was successful, with a determined Z' factor of 0.57 ∼ 0.60. […] At the end, 1392 compounds were identified for high inhibition (>80%) of the GLK-induced NF-κB luciferase activity of CHO‐GLK‐Luc cells. […]
Figure 3 Verteporfin (C1) blocks the AhR–ROR-γt complex in human autoimmune T cells. […] D) Quantification of the PLA signals shown in panel C. *P < 0.05, ***P < 0.001 (2-tailed Student’s t test).

verteporfin was tested, and the “serum levels of IL-6, TNF-α, IFN-γ, and IL-4, CIA” value (CIA mice; 0.4 μg/g body weight i.v. every 3 d) was “not significantly decreased”, the “serum IL-17A levels, CIA” value (CIA mice; 0.4 μg/g body weight i.v. every 3 d, d 28) was “significantly suppressed” and the “disease severity (clinical score), CIA” value (CIA mice; 0.4 μg/g body weight i.v. every 3 d from d 21) was “significantly suppressed”. For the same substance, the IC50 (KHS (MAP4K5)) was 43.9 nM and the “GLK kinase activity in vitro” value (GLK kinase domain) was “efficiently inhibited”.
